The values that follow come from patent US6706947B2, “Method for screening for agents against cancer using an immunosuppression animal model” (Fremantle Hospital, priority 1996, dated 2004).

Values after ≈ are worked out from the molar mass of the structure shown.

Series [1] in a line: Steady-state plasma concentrations of ketoconazole in sheep (hplc). The format is in vivo. As for the experimental part: Following the first dose on the first study day, venous blood samples (5 ml, anticoagulated with EDTA) were collected at 0.17, 0.33, 0.5, 0.75, 1, 2, 3, 4, 6, 8, 12, 15, 22, 27 and 32 h. […] Ketoconazole administration was continued throughout the latter blood sampling period.
Some blood samples taken on days 18-23 were centrifuged to yield plasma which was frozen at −20° C. until analysed for ketoconazole by a specific hplc method. Aliquots of plasma (0.1 ml) were vortexed vigorously with 1 ml acetonitrile (containing 8 mg of fluoxetine hydrochloride as internal standard) for 15 sec. The mixture was centrifuged at 1200 g for 10 min to sediment proteins, 0.5 ml of the supernatant was aspirated, transferred to a clean tube and evaporated to dryness at 50° C. using dry N2. The extract was reconstituted in 0.2 ml of hplc mobile phase and 0.02 ml aliquots were injected onto the hplc column. The hplc system consisted of a Merck RP Select B C18 column (25 cm×4.6 mm id), a mobile phase of 55% acetonitrile in 0.01% v/v H3PO4 and 0.01% W/V NaCl. The solvent was pumped at a flow rate of 1.5 ml/min and eluting compounds were detected by their UV absorbence at 210 nm.

The test system of the next series is B16M. The note with it: day 3 in culture, MTT.
The test system of a further series is HT-29. The settings on record: HT-29, day 3 in culture, MTT.
In the next series the test system is SKMEL. The note with it: day 3 in culture, MTT.
The conditions of series [2]: literature (Borel, 1989; Reynolds et al, 1992; Eichenberger et al, 1989a); cited from earlier work.

Method for B16M: (§1) All tumour cell lines were incubated at 37° C./5%CO2/95% humidity and the medium was changed every 3 to 4 days. For passage and assay, cells were detached with 0.1% w/v trypsin/0.02% w/v versene (CSL).
(§2) The assay was performed according to the method of Mosmann (1983). […] 20 μl of MTT (stock at 5 mg/ml in PBS) was added to each well and the plates incubated at 37° C. for 4 hours. 100 ul of 0.04N HCl-isopropanol was then added to each well and the dark blue formazan-crystals were dissolved by mixing. Optical densities (ODs) were determined at 590 nm using a Titertek multiscan photometer (Flow Labs.) and were directly proportional to cell growth (Mosmann, 1983).
(§3) Tumour cell growth inhibition was assessed using the MTT assay.
(§4) If the values fall in a straight line the effects are additive, and if the points form a concave curve, the effects are synergistic. […] The fractional survival of the individual reagents is determined and the two values are multiplied together. The product of the two values becomes the expected cell survival, and is compared with the observed fractional survival when the two reagents are tested together. […]
Method for HT-29: as §1, §2, §3, §4
Method for SKMEL: as §1, §2, §3, §4

Turning to `CC(=O)N1CCN(c2ccc(OCC3COC(Cn4ccnc4)(c4ccc(Cl)cc4Cl)O3)cc2)CC1` (centres unmarked) [Ketoconazole], the “Steady-state concentration of ketoconazole in plasma (mean of trough samples)” value worked out at 2.6 mg/L in series [1] (sheep 14, days 18-23, ketoconazole 10 mg/kg po twice daily); 2.19 mg/L in series [1] (sheep 15, days 18-23, ketoconazole 10 mg/kg po twice daily); 1.63 mg/L in series [1] (sheep 16, days 18-23, ketoconazole 10 mg/kg po twice daily); 3.04 mg/L in series [1] (sheep 17, days 18-23, ketoconazole 10 mg/kg po twice daily). The “ED50 (± SD)” value in the series with B16M turned out to be 18.2 ± 3.9 µg/mL (≈ 34.2 µM); in the series on HT-29, 12.7 ± 2.0 µg/mL (≈ 23.9 µM); in the series with SKMEL, 28.3 ± 1.7 µg/mL (≈ 53.3 µM). In addition, the “Maximum therapeutic plasma concentration” value in series [2] was 0.10 µg/mL.
